Results reported in patent US20140349943A1, “TOPICAL FORMULATIONS OF CHEMERIN C15 PEPTIDES FOR THE TREATMENT OF DERMATOLOGICAL CONDITIONS” (priority 2011, published 2014).
pEC50, pIC50: −log10 of the molar value. Read-outs that look alike come from different tables or passages of the source. Peptide text beside a SMILES is read from it.

Key:
Type in all cases: cell-based
ChemR23 = target: T1, ChemR23 (Homo sapiens, UniProt Q99788); assay: Hit Hunter cAMP Hunter assay, human ChemR23
T1 sequence (Q99788 1-373): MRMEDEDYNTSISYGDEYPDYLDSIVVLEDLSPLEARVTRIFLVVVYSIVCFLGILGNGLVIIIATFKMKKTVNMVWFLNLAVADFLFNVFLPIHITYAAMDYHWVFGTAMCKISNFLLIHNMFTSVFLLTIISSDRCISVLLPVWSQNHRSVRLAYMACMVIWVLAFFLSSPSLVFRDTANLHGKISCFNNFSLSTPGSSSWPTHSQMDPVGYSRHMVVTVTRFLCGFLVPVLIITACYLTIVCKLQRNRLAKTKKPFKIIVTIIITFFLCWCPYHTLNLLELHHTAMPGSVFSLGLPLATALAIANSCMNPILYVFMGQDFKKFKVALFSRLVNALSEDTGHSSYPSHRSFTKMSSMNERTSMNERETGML
Description: (§1) The DiscoveRx PathHunter™ eXpress GPCR activity assay was employed to test agonist and antagonist activities of the chemerin peptides against the GPCRs ChemR23 and GPR1. Two assay formats were tested, the PathHunter β-Arrestin assay and the Hit Hunter cAMP Hunter assay.
(§2) The protocol used was a standard protocol employed by DiscoveRx PathHunter™ profiling service. […] Once it was established that the cells were healthy and growing normally, cells were passaged from flasks using cell dissociation reagent buffer and seeded into white walled clear bottom 384-well microplates for compound profiling. For profiling, cells were seeded at a density of 10000 cells per well in a total volume of 20 μL and were allowed to adhere and recover overnight prior to compound addition. Cells were treated the following day using the protocols shown below. cAMP modulation was determined using the DiscoveRx HitHunter cAMP XS+ assay.
For profiling compound in agonist mode, the cells were incubated in the presence of compound at 37° C. for 30 minutes.
EC80 agonist concentration was determined directly from agonist dose curve.
Microplates were read following signal generation with a PerkinElmer Envision™ instrument for chemiluminescent signal detection.
Dose curves in the presence and absence of compound were plotted using GraphPad Prism or Activity Base.

mChemR23 = target: T2, mChemR23 (Mus musculus, UniProt P97468); assay: PathHunter β-Arrestin assay, mouse ChemR23
T2 construct: host or cells: CHO (stated generally for the PathHunter assay)
T2 sequence (P97468 1-371): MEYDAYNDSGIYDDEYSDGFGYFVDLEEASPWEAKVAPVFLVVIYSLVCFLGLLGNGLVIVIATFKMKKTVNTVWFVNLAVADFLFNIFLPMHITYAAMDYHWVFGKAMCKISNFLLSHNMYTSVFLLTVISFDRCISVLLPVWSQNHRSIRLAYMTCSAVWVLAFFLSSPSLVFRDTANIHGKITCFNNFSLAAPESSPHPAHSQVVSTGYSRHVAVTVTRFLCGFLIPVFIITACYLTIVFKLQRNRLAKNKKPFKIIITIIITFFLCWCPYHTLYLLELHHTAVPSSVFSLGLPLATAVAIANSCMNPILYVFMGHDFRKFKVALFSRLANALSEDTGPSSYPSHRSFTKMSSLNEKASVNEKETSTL
Description: as §1
(§3) The PathHunter β-Arrestin assay monitors the activation of a GPCR in a homogenous, non-imaging assay format using a technology developed by DiscoveRx called complementation, which utilizes an enzyme fragment complementation (EFC) assay with β-galactosidase (β-Gal) as the functional reporter. The enzyme is split into two complementary portions expressed as fusion proteins in the cell. The Enzyme Acceptor (EA) is fused to β-Arrestin and the ProLink donor peptide is fused to the GPCR of interest. Upon GPCR stimulation, β-Arrestin is recruited to the receptor for desensitization, bringing the two fragments of β-Gal together and allowing complementation to occur.
(§4) The assay involves CHO cell lines that express 1) a GPCR of interest (e.g. ChemR23 or GPR1) that has a fragment of the βgal enzyme fused to the C-terminus of the receptor and 2) a β-arrestin fused to the main β-gal enzyme. When the agonist binds to the receptor, β-arrestin is recruited to the receptor and the β-gal enzyme is complemented by the fragment from the GPCR thus forming a functional β-gal enzyme. A substrate is then added and luminescence is generated to detect β-arrestin recruitment.
as §2, with “reagent” for “reagent buffer”, “5000” for “10000”, “addition.” for “addition. Cells were treated the following day using the protocols shown below. cAMP modulation was determined using the DiscoveRx HitHunter cAMP XS+ assay.”
(§5) For the agonist assay, intermediate dilution of compound stocks were generated such that 5 μL of 5× compound could be added to each well with a final DMSO concentration of 1% of total volume. For profiling compound in agonist mode, the cells were incubated in the presence of compound at 37° C. for 90 minutes.
For the antagonist assay, agonist dose curves were performed the morning of profiling to determine the EC80 value for the following antagonist testing with compounds. 5 μL of 5× agonist (i.e. chemerin) was added to each well with an equal concentration of vehicle present. EC80 agonist concentration was determined directly from agonist dose curve. For antagonist determination, cells were preincubated with antagonist followed by agonist challenge at the EC80 concentration: 4. 5 μL of 5× compound added to cells and incubated at 37° C. for 30 minutes. 5. […]
(§6) Microplates were read following signal generation with a PerkinElmer Envision™ instrument for chemiluminescent signal detection
(§7) Dose curves in the presence and absence of compound were plotted using GraphPad Prism or Activity Base. For agonist mode assays, percentage activity was calculated using the following formula: % Activity=100%×(Mean RLU of test sample−mean RLU of vehicle control)/(mean MAX RLU control ligand−mean RLU of vehicle control)). For antagonist mode assays, percentage inhibition was calculated using the following formula: % Inhibition=100%×(1−(Mean RLU of test sample−mean RLU of vehicle control)/(mean RLU of EC80 control−mean RLU of vehicle control)).

ChemR23 (CMKLR1) = target: T3, ChemR23 (CMKLR1) (Homo sapiens, UniProt Q99788); assay: PathHunter β-Arrestin assay, ChemR23 (CMKLR1), agonist and antagonist mode; conditions: for Rank Order / % Max Activity / % Max Inhibition: ChemR23; for Rank Order: agonist; for % Max Activity: agonist mode; for % Max Inhibition: antagonist mode, chemerin at EC80; for agonist activity, in words / antagonist activity, in words: human ChemR23; for agonist activity, in words: FIG. 2A/2B; for antagonist activity, in words: chemerin at 80% maximum signal
T3 construct: host or cells: CHO
T3 sequence (Q99788 1-373): T1 sequence (Q99788 1-373)
Description: as §1, §3, §4
as §2, with “reagent” for “reagent buffer”, “5000” for “10000”, “addition.” for “addition. Cells were treated the following day using the protocols shown below. cAMP modulation was determined using the DiscoveRx HitHunter cAMP XS+ assay.”
as §5
For the antagonist assay, agonist dose curves were performed the morning of profiling to determine the EC80 value for the following antagonist testing with compounds. 5 μL of 5× agonist (i.e. chemerin) was added to each well with an equal concentration of vehicle present. EC80 agonist concentration was determined directly from agonist dose curve. For antagonist determination, cells were preincubated with antagonist followed by agonist challenge at the EC80 concentration: 4. 5 μL of 5× compound added to cells and incubated at 37° C. for 30 minutes. 5. 5 μL of 6× EC80 agonist added to cells and incubated at 37° C. for 90 minutes.
as §6, §7

| Structure (SMILES) | pIC50 (ChemR23) | pEC50 (mChemR23) | pEC50 (ChemR23 (CMKLR1)) | pIC50 (ChemR23 (CMKLR1)) | Rank Order (ChemR23 (CMKLR1)) | % Max Activity (ChemR23 (CMKLR1)) | % Max Inhibition (ChemR23 (CMKLR1)) | agonist activity, in words (ChemR23 (CMKLR1)) | antagonist activity, in words (ChemR23 (CMKLR1)) | pIC50 (mChemR23) | EC50 (ChemR23 (CMKLR1); read-out: RC50 (uM), EC50, Arrestin, Agonist, AssayTarget ChemR23) |
| --- | --- | --- | --- | --- | --- | --- | --- | --- | --- | --- | --- |
| C[C@H](N)C(=O)NCC(=O)N[C@@H](CCC(=O)O)C(=O)N[C@@H](CC(=O)O)C(=O)N1CCC[C@H]1C(=O)N[C@@H](Cc1c[nH]cn1)C(=O)N[C@@H](CO)C(=O)N[C@@H](Cc1ccccc1)C(=O)N[C@@H](Cc1ccc(O)cc1)C(=O)N[C@@H](Cc1ccccc1)C(=O)N1CCC[C@H]1C(=O)NCC(=O)N[C@@H](CCC(N)=O)C(=O)N[C@@H](Cc1ccccc1)C(=O)N[C@@H](C)C(=O)O [C15 (human)] (H-AGEDPHSFYFPGQFA-OH; N-terminus and C-terminus assumed) | < 5.00 | < 5.00 | < 5.00 | < 5.00 | 3 | 0.8% | 0% | neither human nor mouse chemerin C15 peptides acted as agonists | neither human nor mouse chemerin C15 peptides acted as antagonists | – | – |
| C[C@H](N)C(=O)NCC(=O)N[C@@H](CCC(=O)O)C(=O)N[C@@H](CC(=O)O)C(=O)N1CCC[C@H]1C(=O)N[C@@H](Cc1c[nH]cn1)C(=O)N[C@@H](CO)C(=O)N[C@@H](Cc1ccccc1)C(=O)N[C@@H](Cc1ccc(O)cc1)C(=O)N[C@@H](Cc1ccccc1)C(=O)N1CCC[C@H]1C(=O)NCC(=O)N[C@@H](CCC(N)=O)C(=O)N[C@@H](Cc1ccccc1)C(=O)N[C@@H](C)C(=O)N[C@@H](Cc1ccccc1)C(=O)N[C@@H](CO)C(=O)O [C17 (human)] (H-AGEDPHSFYFPGQFAFS-OH; N-terminus and C-terminus assumed) | < 5.00 | – | – | < 5.00 | 2 | 67.5% | 0% | exhibited agonist activity | – | < 5.00 | – |
| CC(C)C[C@H](NC(=O)[C@H](Cc1ccccc1)NC(=O)[C@H](Cc1ccc(O)cc1)NC(=O)CNC(=O)[C@H](Cc1c[nH]cn1)NC(=O)[C@@H]1CCCN1C(=O)[C@H](CC(=O)O)NC(=O)[C@H](CCC(=O)O)NC(=O)CNC(=O)[C@H](C)N)C(=O)N1CCC[C@H]1C(=O)NCC(=O)N[C@@H](CCC(N)=O)C(=O)N[C@@H](Cc1ccccc1)C(=O)N[C@@H](C)C(=O)O [mC15] (H-AGEDPHGYFLPGQFA-OH; N-terminus and C-terminus assumed) | < 5.00 | – | < 5.00 | < 5.00 | 3 | 0.4% | 0% | neither human nor mouse chemerin C15 peptides acted as agonists | neither human nor mouse chemerin C15 peptides acted as antagonists | < 5.00 | > 10 µM |
